By kon is commonly meant the second-order rate constant of association.

The results in this text go back to BindingDB's records for doi:10.1016/0960-894X(96)00012-1 (1996).

The assay deals with T1, Acetylcholinesterase (Bos taurus, UniProt P23795).
T1 sequence (P23795 whole entry): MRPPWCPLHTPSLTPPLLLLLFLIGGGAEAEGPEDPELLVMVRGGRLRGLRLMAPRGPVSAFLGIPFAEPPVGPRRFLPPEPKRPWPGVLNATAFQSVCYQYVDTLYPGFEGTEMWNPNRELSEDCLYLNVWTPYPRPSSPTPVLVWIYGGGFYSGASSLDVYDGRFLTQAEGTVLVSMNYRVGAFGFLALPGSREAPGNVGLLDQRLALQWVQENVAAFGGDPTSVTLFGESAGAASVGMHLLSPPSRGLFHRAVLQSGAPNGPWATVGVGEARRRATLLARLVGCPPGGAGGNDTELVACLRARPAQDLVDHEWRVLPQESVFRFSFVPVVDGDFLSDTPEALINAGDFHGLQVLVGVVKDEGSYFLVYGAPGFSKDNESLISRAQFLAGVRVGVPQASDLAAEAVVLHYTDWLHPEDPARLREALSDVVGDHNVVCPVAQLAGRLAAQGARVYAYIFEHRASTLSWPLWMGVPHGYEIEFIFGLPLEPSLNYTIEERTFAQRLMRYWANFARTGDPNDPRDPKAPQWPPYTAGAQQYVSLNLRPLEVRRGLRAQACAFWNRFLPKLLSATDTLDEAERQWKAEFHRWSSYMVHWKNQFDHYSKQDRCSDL
As to the kind of experiment: Kinetic constant for inhibition of fetal bovine serum acetylcholinesterase. The settings on record: for kon: read-out: kon (M-1-s-1).

For the compound `C/C=C1\C2C=C(C)C[C@]1(N)c1ccc(=O)[nH]c1C2(C)C` [(R)-1-Amino-13-ethylidene-8,8,11-trimethyl-6-aza-tricyclo[7.3.1.0*2,7*]trideca-2(7),3,10-trien-5-one], the kon was found to be 0.013 M⁻¹ s⁻¹.

In the case of `C/C=C1\[C@H]2C=C(C)C[C@@]1(N)c1ccc(=O)[nH]c1C2` [Huperzine A], the “kon (M-1-s-1)” value was 0.05667 M-1-s-1 and the kon was 0.057 M⁻¹ s⁻¹.
